A value given as a limit tells only on which side of the number the result lay.

The test has as its target T1, human TLR7 (Homo sapiens, UniProt Q9NYK1).
T1 sequence (Q9NYK1 27-1049): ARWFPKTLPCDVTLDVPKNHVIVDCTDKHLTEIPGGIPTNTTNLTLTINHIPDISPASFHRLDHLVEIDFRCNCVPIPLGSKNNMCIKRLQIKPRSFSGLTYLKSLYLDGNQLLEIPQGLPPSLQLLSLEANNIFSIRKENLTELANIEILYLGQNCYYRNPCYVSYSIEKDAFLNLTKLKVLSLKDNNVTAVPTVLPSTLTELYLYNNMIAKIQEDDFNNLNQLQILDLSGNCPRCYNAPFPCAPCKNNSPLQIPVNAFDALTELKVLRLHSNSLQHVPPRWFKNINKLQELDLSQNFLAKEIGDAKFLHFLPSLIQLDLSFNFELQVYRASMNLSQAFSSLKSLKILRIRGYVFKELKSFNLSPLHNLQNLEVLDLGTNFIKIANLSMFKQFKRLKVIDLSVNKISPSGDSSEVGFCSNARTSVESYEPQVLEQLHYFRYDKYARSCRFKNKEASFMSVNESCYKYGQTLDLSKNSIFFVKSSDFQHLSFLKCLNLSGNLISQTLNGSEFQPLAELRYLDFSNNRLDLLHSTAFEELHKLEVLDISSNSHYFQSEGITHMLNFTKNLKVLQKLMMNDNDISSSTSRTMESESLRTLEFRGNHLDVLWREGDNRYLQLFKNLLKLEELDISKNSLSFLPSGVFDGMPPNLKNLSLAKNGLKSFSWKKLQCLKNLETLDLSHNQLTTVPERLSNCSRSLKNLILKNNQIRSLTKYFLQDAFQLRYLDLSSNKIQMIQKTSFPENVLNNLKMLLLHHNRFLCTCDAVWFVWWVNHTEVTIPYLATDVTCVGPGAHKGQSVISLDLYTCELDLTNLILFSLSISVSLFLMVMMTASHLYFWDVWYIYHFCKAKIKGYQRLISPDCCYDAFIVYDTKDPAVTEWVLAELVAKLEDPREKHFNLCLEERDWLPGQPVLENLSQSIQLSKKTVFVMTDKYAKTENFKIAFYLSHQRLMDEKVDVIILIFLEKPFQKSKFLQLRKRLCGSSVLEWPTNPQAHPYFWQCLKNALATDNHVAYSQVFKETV
Nature of the test: HEK293-Blue-hTLR-7 cells assay. Type of test: cell-based. To be noted: HEK293-Blue-hTLR7 cells, R848 stimulation, 20 hrs, SEAP reporter; read-out: HEK/hTLR7 IC50. The procedure, abridged: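 HEK293-Blue-hTLR7 cells (NF-κB/AP-1-driven SEAP reporter) incubated with serially diluted compound (1% DMSO final) and R848 agonist for 20 h at 37 °C. Supernatant SEAP measured with QUANTI-Blue (2 h, 37 °C) by absorbance at 620-655 nm; antagonism seen as reduced reporter.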
`C[C@@H]1CN(c2ccc(Cl)c3ncccc23)C[C@@H]2c3ccc(N[C@H]4CNC[C@H]4F)cc3CN12` [Example 79, (4R,10b)-2-(8-chloro-5-quinolyl)-N-[(3S,4R)-4-fluoropyrrolidin-3-yl]-4-methyl-3,4,6,10b-tetrahydro-1H-pyrazino[2,1-a]isoindol-8-amine]: the IC50 came to 7.6 nM.

Take `C[C@@H]1CN(c2ccc(C#N)c3ncccc23)C[C@@H]2c3ccc(N4C[C@@H]5CNCCN5C4=O)cc3CN12` [Example 71, 5-[(4R,10bS)-8-[(8aS)-3-oxo-1,5,6,7,8,8a-hexahydroimidazo[1,5-a]pyrazin-2-yl]-4-methyl-3,4,6,10b-tetrahydro-1H-pyrazino[2,1-a]isoindol-2-yl]quinoline-8-carbonitrile]: the IC50 was less than 3.2 nM. `C[C@@H]1CN(c2ccc(C#N)c3ncccc23)C[C@@H]2c3ccc(N[C@@H]4CCCNC4)cc3CN12` [Example 65, 5-[(4R,10bS)-4-methyl-8-[[(3R)-3-piperidyl]amino]-3,4,6,10b-tetrahydro-1H-pyrazino[2,1-a]isoindol-2-yl]quinoline-8-carbonitrile]: the IC50 worked out at 4.4 nM. Next, `CO[C@@H]1CNC[C@H]1Nc1cc2c(cc1C)[C@H]1CN(c3ccc(C#N)c4ncccc34)C[C@@H](C)N1C2` [Example 63, 5-[(4R,10bS)-8-[[(3R,4R)-4-methoxypyrrolidin-3-yl]amino]-4,9-dimethyl-3,4,6,10b-tetrahydro-1H-pyrazino[2,1-a]isoindol-2-yl]quinoline-8-carbonitrile]: 7.3 nM; `C[C@@H]1CN(c2ccc(C#N)c3ncccc23)C[C@@H]2c3cc(F)c(N4CC5(CNC5)C4)cc3CN12` [Example 84, 5-[(4R,10bS)-8-(2,6-diazaspiro[3.3]heptan-2-yl)-9-fluoro-4-methyl-3,4,6,10b-tetrahydro-1H-pyrazino[2,1-a]isoindol-2-yl]quinoline-8-carbonitrile]: 2.6 nM.

For the compound `C[C@H]1CN(c2ccc(C#N)c3ncccc23)C[C@H]2c3ccc(N4CCNCC4)cc3CN12` [Example 2, 5-[(4S,10bR)-4-methyl-8-piperazin-1-yl-3,4,6,10b-tetrahydro-1H-pyrazino[2,1-a]isoindol-2-yl]quinoline-8-carbonitrile], the IC50 came out at 71.5 nM. For `C[C@@H]1CN(c2ccc(C#N)c3ncccc23)C[C@@H]2c3ccc(N4CCNCC4)cc3CN12` [Example 1, 5-[(4R,10bS)-4-methyl-8-piperazin-1-yl-3,4,6,10b-tetrahydro-1H-pyrazino[2,1-a]isoindol-2-yl]quinoline-8-carbonitrile], the IC50 is less than 3.2 nM. For the compound `Cc1ccc(N2C[C@@H](C)N3Cc4cc(N[C@H]5CNC[C@H]5F)ccc4[C@H]3C2)c2cccnc12` [Example 75, (4R,10bS)—N-[(3S,4R)-4-fluoropyrrolidin-3-yl]-4-methyl-2-(8-methyl-5-quinolyl)-3,4,6,10b-tetrahydro-1H-pyrazino[2,1-a]isoindol-8-amine], the IC50 was determined as 47.8 nM. Regarding `[2H]c1ccc2c(N3C[C@@H](C)N4Cc5cc(N6CC7(CNCCO7)C6)ccc5[C@H]4C3)ccc(C#N)c2n1` [Example 90, 5-[(4R,10bS)-4-methyl-8-(5-oxa-2,8-diazaspiro[3.5]nonan-2-yl)-3,4,6,10b-tetrahydro-1H-pyrazino[2,1-a]isoindol-2-yl]-2-deuterio-quinoline-8-carbonitrile], the IC50 stood at 2.9 nM.

`C[C@@H]1CN(c2ccc(C#N)c3ncccc23)C[C@@H]2c3cccc(N[C@H]4CNC[C@H]4F)c3CN12` [Example 81, 5-[(4R,10bS)-7-[[(3S,4R)-4-fluoropyrrolidin-3-yl]amino]-4-methyl-3,4,6,10b-tetrahydro-1H-pyrazino[2,1-a]isoindol-2-yl]quinoline-8-carbonitrile]: the IC50 is 7.4 nM. Consider `C[C@@H]1CN(c2ccc(C#N)c3ncccc23)C[C@@H]2c3cccc(NCCN4CC[C@H](O)C4)c3CN12` [Example 80, 5-[(4R,10bS)-7-[2-[(3S)-3-hydroxypyrrolidin-1-yl]ethylamino]-4-methyl-3,4,6,10b-tetrahydro-1H-pyrazino[2,1-a]isoindol-2-yl]quinoline-8-carbonitrile], for which the IC50 amounted to 17.9 nM.

(Values after patent publication US12157746B2, “Tetrahydro-1H-pyrazino[2,1-a]isoindolylquinoline compounds for the treatment of autoimmune disease” (F. HOFFMANN-LA ROCHE AG, priority 2018, dated 2024).)
